According to patent US20220050096A1, “ANALYTE-SENSITIVE PROBES AND CONTACT LENS FOR DIAGNOSIS OF OCULAR PATHOLOGIES” (University Of Maryland, Baltimore, priority 2020, published 2022):
Several values for one entry are separate records, joined by “and”; a condition that tells them apart may be missing. Equal values may be shown once.

How the values were obtained:
[1] = Sodium binding affinity (mid-point) of SG in buffer; conditions: read-out: Na^+ binding constant / binding affinity (mid-point)
Method: Fluorescence Spectroscopic Measurements. Fluorescence intensities and intensity decays were measured using a Varian™ Eclipse 4 spectrofluorometer and a FluoTime300 instrument from PicoQuant™ (Berlin, Germany) and analyzed with the EasyTau™ software. The excitation source was a 473 nm laser diode with a repetition rate of 40 MHZ and a pulse width less than 100 ps. In other embodiments, the excitation source for SG-PL was at 495 nm from a Solea™ supercontinuum laser (PicoQuant™, Germany) and a 375 nm laser diode (PDL 375, PicoQuant™), a repetition rate of 40 MHz, and a pulse width less than 100 ps. Some intensity and lifetime measurements for SG-PL (as indicated) were performed using Alba V confocal fluorescence lifetime microscopy, FLIM (ISS, Urbana, Ill.), with excitation source of a 473 nm laser diode with a repetition rate of 40 MHz and a pulse width near 250 ps.
Sodium Binding Affinity. The sodium affinity of the labeled lenses can be described in terms of the dissociation constant. The dissociation reaction for the probe complexed with Na+ can be written as
P—Na^+↔P+Na^+ (equation 4)
where P is the free probe with no bound sodium in the dissociation constant KD is given. The ratio of sodium free and sodium bound probe is given by
The binding affinity is given as the mid-point (MP) of the ion-dependent response where the spectral change is 50% complete. […]

[2] = Fluorescence anisotropy decays of SG in buffer and sodium probes in Biofinity lenses; format: physicochemical
Method: Three decay time components were required for the intensity decays. Fluorescence anisotropy decays were determined by individual measurements of the polarized intensity decays with corrections for the G-factor. Resolution of multi-exponential decays is not necessary. The average lifetime can be used as a single measurement.
Similar anisotropy decays have been observed for numerous fluorophores bound to large proteins or membranes.

[3] = Chloride quenching (Stern-Volmer) of SPQ-C18 in contact lenses; format: physicochemical
Method: Quenching by Chloride. […] The intensities (I) and lifetimes (6) are analyzed using the Stern-Volmer equation, where F0 and τ0 are the intensities and lifetimes in the absence of chloride, and K is the quenching constant and the inverse of the [Cl^-] needed for 50% quenching. For collisional quenching, the value of F0/F and τ0/τ are typically the same. In solution, in the absence of lenses, the value of K=kq τ0 can be used to calculate the biomolecular quenching constant kq and the quenching efficiency. In the lenses, the [Cl-] may not be the same as in the bulk solution, but kq in the lenses is estimated by assuming the same concentration of chloride around the SPQ moiety in the lenses and in bulk solutions. Chloride-sensitive lenses were prepared using SPQ-C18. The quinolinium moiety in SPQ-C18 can be used for chloride sensing in tears. Its unquenched lifetime near 18.5 ns (see Table 14 and Table 15, below) which results in significant changes up to chloride concentrations of 220 mM, which is well above the physiological range. BiofinityTM and […] lenses labeled with SPQ-C18 were both found to display significant quenching at physiological concentrations of chloride near 120 mM. The emission intensities of SPQ-C18 were quenched by about 50% at this chloride concentration (FIG. 31 and FIG. 32). The emission spectra are not changed by quenching so intensity-based sensing may be different in a realworld application. […] Chloride quenching was analyzed using the Stern-Volmer equation for intensities and lifetimes (equations 7 and 8). In this analysis, we used the average lifetimes (equation 2) that is more appropriate for quenching. […] In contrast quenching of SP-PL, both intensity and lifetime, continue to decrease as the chloride concentration is increased. At the molecular level, the most interesting term is the biomolecular quenching constant kq. This value can be understood by comparison with quenching of a fluorophore in solution without any steric barriers. […] This approach for SPQ-C18 in lenses is shown in both intensities and amplitude-weighted lifetimes (FIG. 35A and FIG. 35B). […] This behavior is different from SG-PL where the binding site can be saturated at high Na^+ concentrations. In contrast, quenching of OD-MQB, both intensity and lifetime, continue to decrease as the chloride concentration increased. The steady-state intensities and intensity decays can be used to calculate the bimolecular quenching constant kq. This value can be interpreted by comparison with quenching of a fluorophore in solution without any steric barriers. […] This is the same structure of SPQ-C18 but with a shorter, three carbon propenyl chain. The unquenched lifetime (τ0) of P-MQB was 26 ns, and the Stern-Volmer constant K was 140 M^-1. […] Emission spectra and time-dependent decays were obtained (data not shown). Stern-Volmer plots were obtained in water and in a Stenfilcon A (AspireTM) contact lens by plotting the normalized intensities with respect to the added chloride concentrations.

[4] = Stenfilcon A (Aspire™) contact lens

Kd [1]	anisotropy decay [2]	unquenched lifetime ([3]; in lenses) [ns]	Compound	reduction of quenching constant, in lens versus SPQ-C3 in buffer [3] [fold]	k (bimolecular quenching constant) ([3]; Biofinity)	quenching constant K from lifetime measurement ([3]; Biofinity) [M⁻¹]	k (bimolecular quenching constant) ([3]; MyDay)	quenching constant K from lifetime measurement ([3]; MyDay) [M⁻¹]	bimolecular quenching constant [3, 4] [M⁻¹ s⁻¹]	decrease in the collision rate versus SPQ-C3 in water [3, 4]	quenching of emission intensities ([3]; chloride near 120 mM, Biofinity and MyDay)
~10 mM and ~6.5 mM	decayed quickly to zero		COc1cc(N2CCOCCOCCN(c3cc(OC)c(NC(=O)c4ccc(-c5c6cc(Cl)c(=O)cc-6oc6cc([O-])c(Cl)cc56)c(C(=O)[O-])c4)cc3OC)CCOCC2)c(OC)cc1NC(=O)c1ccc(-c2c3cc(Cl)c(=O)cc-3oc3cc([O-])c(Cl)cc23)c(C(=O)[O-])c1.C[N+](C)(C)C.C[N+](C)(C)C.C[N+](C)(C)C.C[N+](C)(C)C [SG]								
		~18.5	CCCCCCCCCCCCCCCCCC[n+]1cccc2cc(OC)ccc21 [SPQ-C18, N-Octadecyl-6-methoxyquinolinium bromide]	10	0.41×10^9 m-1 sec-1	8.12	0.37×10^9 m-1 sec-1	7.44	1e+09	5.4	about 50%
